Data taken from patent US20240384268A1, “Oligonucleotides” (Hudson Institute of Medical Research, priority 2021, published 2024).
l = locked nucleic acid (LNA); d = 2'-deoxy (DNA)

Legend:
[1] = target: T1, mouse cGAS (Mus musculus, UniProt Q8C6L5); assay: ISD45-driven ISRE-luciferase in mouse LL171 cells; assay type: cell-based; conditions: 2′OMe or PS oligos 50-600 nM, ISD45 2.5 μg/ml overnight
T1 construct: endogenous in cells; host or cells: LL171 (mouse L929 cells with ISRE-Luciferase)
Experimental: In such examples, inhibition of cGAS activity can be identified by observation of an overall decreased cGAS response of the cell population, or a lower proportion of cells having cGAS-positive activity as compared to positive control condition in which cells are treated with cGAS agonist in the absence of the oligonucleotide (or in the presence of an appropriate control inhibitory agent). In one example, THP-1 or HT-29 cells are transfected with ISD70 and incubated with an oligonucleotide. cGAS activity can then be determined by cytokine (e.g., IP-10 and/or IFNβ) expression (e.g., gene and/or protein expression) and/or secretion levels, such as by ELISA. A similar assay can be performed with LL171 cells transfected with ISD45. […] By way of example, cGAS enzymatic activity may be assessed in vitro using recombinant cGAS and then measuring activity thereof by way of a cGAMP ELISA.
For cGAS stimulations, cells were treated for indicated duration with ASOs, prior to transfection with ISD70 (human cells) or ISD45 (mouse cells) (the ASOs were not washed off prior to ISD transfection unless otherwise indicated). The cGAS ligands ISD45 (Stetson and Medzhitov, 2006) and ISD70 (also known as VACV-70 (Unterholzner et al., 2010)) (Table 1) were resuspended as follows: 5 1d of sense and 5 μl of antisense strands at 10 μg/μl were added to 90 μl PBS under sterile conditions, heated at 75° C. for 30 min, prior to letting cool down at room temperature and aliquoting (stock at 1 μg/1 l). The ISDs were transfected at a concentration of […] at a ratio of 1 μg:1 μl with Lipofectamine 2000 in Opti-MEM (Thermo Fisher Scientific). HEK-TLR3, HEK-TLR7 and […] were treated with indicated concentration of ASOs for 20-50 min, prior to stimulation with poly(I:C) (Invivogen), R848 (Invivogen), Motolimod (MedChemExpress) and the Class B CpG oligonucleotides ODN 2006 (synthesised by IDT and resuspended in RNase-free TE buffer [Table 1]), respectively. The TLR2/1 agonist PAM3CSK4 (Invivogen), the TLR4 agonist lipopolysaccharide (Invivogen), the Class B CpG oligonucleotides ODN 1826 (synthesised by IDT and resuspended in RNase-free TE buffer), the mouse Sting agonist DMXAA (Cayman) and the human STING agonist (compound #3 from (Raanjulu et al., 2018), referred to as GSK herein—kind gift from Cancer Therapeutics CRC, Australia) were used at indicated concentrations. Aspirin (Sigma—A2093) was resuspended in pure medium to 10 mM, filter sterilised and added to the cells at 2 mM final. All ASOs were synthesised by Integrated DNA Technologies (IDT), and resuspended in RNase-free TE buffer, pH 8.0 (Thermo Fisher Scientific). Cell viability was assessed by adding 1× fresh resazurin solution to the wells (10λ solution made up with 7 mg resazurin [Sigma—R7017] dissolved in 3.5 ml PBS, sterile filtered at […]) for 4 h, prior to reading at with a Fluostar OPTIMA (BMG LABTECH) plate-reader (fluorescence: Excitation 535 nm, Emission 590); wells with medium only and 1× resazurin were used as blanks.
Following transfection, the cells were collected from the 6-wells and aliquoted into 96-wells, just before ASO and overnight TLR stimulation (as above described).

[2] = target: T2, cGAS (Homo sapiens, UniProt Q8N884); assay: ISD70-driven IP-10 production in MG-63 cells; assay type: cell-based; parameters: endogenous in cells
T2 sequence (Q8N884 whole entry): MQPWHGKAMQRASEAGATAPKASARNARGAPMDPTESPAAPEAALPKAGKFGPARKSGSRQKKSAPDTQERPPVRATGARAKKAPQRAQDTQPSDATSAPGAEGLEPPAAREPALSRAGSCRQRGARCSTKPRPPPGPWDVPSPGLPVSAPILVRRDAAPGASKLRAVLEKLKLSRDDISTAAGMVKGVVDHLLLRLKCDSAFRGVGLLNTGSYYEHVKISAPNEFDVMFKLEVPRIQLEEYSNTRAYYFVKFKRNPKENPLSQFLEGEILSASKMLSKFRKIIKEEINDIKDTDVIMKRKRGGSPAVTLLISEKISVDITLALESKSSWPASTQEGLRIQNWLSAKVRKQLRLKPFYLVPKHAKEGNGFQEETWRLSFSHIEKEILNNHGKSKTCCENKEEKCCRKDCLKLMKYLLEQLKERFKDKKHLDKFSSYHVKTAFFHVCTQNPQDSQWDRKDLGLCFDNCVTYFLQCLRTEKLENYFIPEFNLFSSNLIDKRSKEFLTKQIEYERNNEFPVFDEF

[3] = system: HPRT; assay: HPRT mRNA levels in SV40T hTERT fibroblasts, RT-qPCR; assay type: cell-based, human; conditions: 100 nM ASO transfected overnight
[4] = target: T2, cGAS; assay: IFN-driven gene expression in BJ hTERT SV40T fibroblasts (constitutive cGAS activation), RT-qPCR; conditions: ASO transfected 20-100 nM overnight
[5] = target: T2, cGAS; assay: ISD70-driven IP-10 (and IFN-β) production in THP-1 cells, ELISA; assay type: cell-based; parameters: endogenous in cells; host or cells: THP-1 (undifferentiated); conditions: THP-1
[6] = target: T3, STING (Homo sapiens, UniProt Q86WV6); assay: STING agonist (GSK, DMXAA)-driven IP-10 in MG-63 cells and immortalised mouse BMDMs; assay type: cell-based; conditions: C2-Mut1 500 nM 6 h (GSK 100 nM, DMXAA 50 μg/ml); MOE/LNA ASOs 1 mM as printed (GSK, MG-63)
T3 construct: host or cells: MG-63 (human osteosarcoma)
T3 sequence (Q86WV6 whole entry): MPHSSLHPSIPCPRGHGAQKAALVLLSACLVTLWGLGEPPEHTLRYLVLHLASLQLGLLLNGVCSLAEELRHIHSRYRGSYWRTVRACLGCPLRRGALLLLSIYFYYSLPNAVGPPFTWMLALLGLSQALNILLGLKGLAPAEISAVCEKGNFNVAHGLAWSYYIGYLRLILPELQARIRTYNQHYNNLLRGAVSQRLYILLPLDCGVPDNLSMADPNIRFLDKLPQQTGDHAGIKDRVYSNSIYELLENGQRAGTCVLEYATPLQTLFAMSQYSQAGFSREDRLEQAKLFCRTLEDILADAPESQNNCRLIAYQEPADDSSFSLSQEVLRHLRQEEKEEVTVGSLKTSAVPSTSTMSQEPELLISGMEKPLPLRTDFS

[7] = target: T4, TLR3 (Homo sapiens, UniProt O15455); assay: pIC-driven IP-10 in MG-63 cells; assay type: cell-based; parameters: host or cells: MG-63 (human osteosarcoma); conditions: 1 mM ASO as printed, single preliminary experiment
T4 sequence (O15455 24-904): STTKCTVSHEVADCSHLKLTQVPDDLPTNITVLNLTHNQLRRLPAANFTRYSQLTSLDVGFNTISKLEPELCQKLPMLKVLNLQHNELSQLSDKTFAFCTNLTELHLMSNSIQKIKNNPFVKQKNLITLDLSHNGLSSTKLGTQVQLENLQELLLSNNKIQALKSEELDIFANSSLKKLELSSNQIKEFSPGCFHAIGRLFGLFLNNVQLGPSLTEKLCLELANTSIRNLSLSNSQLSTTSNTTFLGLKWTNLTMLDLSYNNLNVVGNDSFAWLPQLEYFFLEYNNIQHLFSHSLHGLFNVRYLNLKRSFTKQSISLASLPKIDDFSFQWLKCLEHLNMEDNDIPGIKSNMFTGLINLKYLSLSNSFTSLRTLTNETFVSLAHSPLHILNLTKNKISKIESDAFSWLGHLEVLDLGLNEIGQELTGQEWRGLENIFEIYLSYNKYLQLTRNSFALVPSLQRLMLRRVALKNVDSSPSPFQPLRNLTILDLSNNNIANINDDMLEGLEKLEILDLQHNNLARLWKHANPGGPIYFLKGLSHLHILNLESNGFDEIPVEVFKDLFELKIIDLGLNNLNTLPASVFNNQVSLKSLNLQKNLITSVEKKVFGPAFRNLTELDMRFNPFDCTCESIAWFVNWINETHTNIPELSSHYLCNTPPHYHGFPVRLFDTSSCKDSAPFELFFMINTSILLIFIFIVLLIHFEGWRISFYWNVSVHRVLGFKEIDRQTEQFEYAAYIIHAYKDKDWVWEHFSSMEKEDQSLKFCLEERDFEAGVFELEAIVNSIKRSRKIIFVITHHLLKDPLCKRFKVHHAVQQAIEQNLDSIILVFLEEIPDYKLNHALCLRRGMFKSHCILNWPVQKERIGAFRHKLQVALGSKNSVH
Experimental: FIG. 25: MG-63 were pre-treated for […] with […] indicated concentrations of ASOs (except for B3 and HPRT847Mut, used at 500 nM), prior to overnight transfection with ISD, stimulation with […] pIC or 100 nM GSK (Valentin et al., 2021). IP10 levels were measured and normalised to GSK only condition, after background correction. Data shown are from a single experiment in biological triplicate (+/−SEM).

[8] = target: cGAS (Mus musculus, UniProt Q8C6L5); assay: ISD-driven IP-10 production in immortalised mouse BMDMs; assay type: cell-based; parameters: endogenous in cells; host or cells: immortalised wild-type mouse bone marrow macrophages (iBMDMs); conditions: iBMDMs, 500 nM ASO
Sequence of cGAS (Mus musculus, UniProt Q8C6L5) (Q8C6L5 whole entry): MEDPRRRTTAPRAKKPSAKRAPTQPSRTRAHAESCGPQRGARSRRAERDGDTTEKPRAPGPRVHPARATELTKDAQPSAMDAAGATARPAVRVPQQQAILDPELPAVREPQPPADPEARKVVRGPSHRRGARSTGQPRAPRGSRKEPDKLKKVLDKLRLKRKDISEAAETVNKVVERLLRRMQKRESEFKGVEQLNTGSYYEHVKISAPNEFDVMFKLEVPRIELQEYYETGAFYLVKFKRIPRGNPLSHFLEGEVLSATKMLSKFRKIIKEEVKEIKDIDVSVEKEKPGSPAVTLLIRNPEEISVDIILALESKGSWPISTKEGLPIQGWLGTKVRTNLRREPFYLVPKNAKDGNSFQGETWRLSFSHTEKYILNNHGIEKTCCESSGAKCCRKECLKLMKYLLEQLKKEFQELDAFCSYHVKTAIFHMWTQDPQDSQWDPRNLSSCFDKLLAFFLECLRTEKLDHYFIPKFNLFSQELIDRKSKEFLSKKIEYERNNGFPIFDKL

T1 sequence (Q8C6L5 whole entry): as above

Substance | inhibition of ISD45-driven ISRE-luciferase (in words) [1] | inhibition of ISD sensing in MG-63, 2′OMe ASOs (in words) ([2]; C2-Mut1 500 nM 6 h, or ASO847 series ~30 min, ISD70 overnight) | HPRT mRNA levels (in words) [3] | inhibition of constitutively expressed ISGs (IFIT1, IFIT2, IFI44; in words) [4] | inhibition of ISD70-driven IP-10 production (in words) ([5]; 2′OMe or PS oligos, 100-250 nM, pre-treatment as in figure legends, ISD70 2.5 μg/ml) | IP-10 production driven by STING synthetic agonists (in words) [6] | IP-10 driven by ISD in MG-63, higher dose (in words) ([2]; 1 mM ASO as printed, single preliminary experiment (FIG. 25)) | IP-10 after ISD in MG-63, MOE and LNA ASOs (in words) ([2]; indicated concentrations up to 500 nM, ~30 min, ISD overnight (FIG. 24)) | IP-10 driven by TLR3 engagement with polyI:C in MG-63 (in words) [7] | ISD-induced IP-10 in immortalised mouse BMDMs (in words) ([8]; ISD overnight) | IP-10 induced by the ASO transfected alone, no ISD (in words) ([8]; lipofectamine only (Mock)) | IC50 ([5]; ~30 min pre-treatment, ISD70 overnight (FIG. 27), read-out: IC50 (IP-10 after ISD70 transfection), MOE and LNA ASOs) [nM]
mG*mG*mU* mA*mU*mA* mG*mG*A* C*T*C* C*A*G* A*T*G* mU*mU*mU* mC*mC [HPRT-2OMe-847-Mut1] | better inhibitor against mouse cGAS activation | much better inhibitor of cGAS | still able to reduce HPRT levels | as potent as C2-Mutl | much better inhibitor of cGAS | – | – | – | – | – | – | –
+C*+G*+C*T*T*T*T*C*T*C*T*C*C*+G*+G*+T (CGCTTTTCTCTCCGGT; sugars from the 5' end l3 d10 l3, all phosphorothioate, methylation of C not given here) [A1-Mut] | – | – | – | – | – | not that driven by direct stimulation of STING | only reduced IP-10 driven by ISD | significantly reduced IP-10 levels | only reduced IP-10 driven by ISD | did not significantly potentiate IP-10 production | induced low level IP-10 | 75
